Here are results for one compound from patent publication US9180155B2, “Compositions from Nigella sativa” (Bio Nexus, Ltd, priority 2013, dated 2015).

A short description of assay [1]: DPPH free radical scavenging (antioxidant) assay. Conditions: computed on basis of TQ content; inactive samples tested up to 1000 μg/mL. As for the experimental part: Antioxidant activity was determined utilizing 2,2-diphenyl-1-picrylhydrazyl (DPPH), which is a stable radical. The odd electron in the DPPH free radical gives a strong absorption maximum at 550 nm and is purple in color. The color turns from purple to yellow as the molar absorption of the DPPH radical at 550 nm is reduced when the odd electron of DPPH radical becomes paired with hydrogen from a free radical scavenging antioxidant to form the reduced DPPH-H. The test samples were dissolved in methanol containing 1% dimethyl sulfoxide and added to microtiter wells in 100 μL aliquots to 100 μL of a 100 μM DPPH solution in methanol. Readings were taken at 10, 30 and 60 minutes following the addition of the test material. Percent inhibition of the DPPH radical by the test material was computed relative to the inhibition of the DPPH radical by the vitamin E analog trolox and tabulated as μmol trolox/g test material.
(Loss of DPPH colour is used to gauge radical scavenging.)

Another assay concerns Caco-2 monolayers. Briefly: t10-CLA-induced loss of TEER in Caco-2 monolayers. It counts as cell-based, human. Conditions: t10-CLA 50 μM control = 100; μg TQ equivalents/mL: Thymoquinone 5.0, NS8 0.11, NS9 0.99, NS10 0.012, NSSpent#2 0.0005; NSSpent#1 5 μg/mL; listed as TQ. From the text: The protocol for growing and differentiation the human Caco-2 colon andenocarcinoma cells was a modification of Protocol 3 as described by Yamashita et al. [[…]., and Furuyama, Y. 2002) New and better protocols for a short-term Caco-2 cell culture system, J Pharm Sci 91, 669-679]. Caco-2 Human Colon Adenocarcinoma cells were obtained from ATCC (Rockville, Md.; catalog #HTB-37) and maintained in a growth media: DMEM (Dulbecco's Modified Eagles Medium 1×) containing L-glutamine, glucose; Cellgro catalog #35-010CV with the following additions: (1) Penicillin (5,000 IU/mL)/Streptomycin (5,000 μg/mL) Cellgro catalog #30-001C1, (2) 10% FBS-Fetal Bovine Serum, Characterized; Hyclone catalog #SH30071.3, and (3) 1% NEAA-Non Essential Amino Acids; Cellgro catalog #25-025-CI; cells were cultured at 37 C in a humidified air-5% CO2 atmosphere in T175 flasks. BIOCOAT^R HTS Caco-2 Assay System kits (Becton Dickinson, N.J.; catalog #354801) consisting of 24-well fibrillar collagen coated inserts and feeder trays were used in all experiments and plated as follows. Media was removed from the T175 flasks and cells were washed with 10 mLs PBS (phosphate buffered saline 1× without Ca^++, without Mg^++; Cellgro #25-053-CI). […]

Assay [2] has as its system IL-6 secretion in 3T3-L1 adipocytes. The assay can be described thus: IL-6 secretion in t10-CLA-stimulated 3T3-L1 adipocytes. Conditions: t10-CLA 50 μM control = 100; μg TQ equivalents/mL: Thymoquinone 5.0, NS8 0.11, NS9 0.99, NS10 0.012, NSSpent#2 0.0005; NSSpent#1 5 μg/mL; listed as TQ. It counts as cell-based, murine. Here is the method:
The 3T3-L1 murine fibroblast model as used in Example 4 was used in this experiments. Test materials were added four hours prior to the addition of t10-CLA at a concentration of 50 μM. Following overnight incubation, the supernatant media were sampled for determination of IL-6 and adiponectin. The IL-6 secreted into the medium in response to […] stimulation was quantified using the Quantikine® Mouse IL-6 Immunoassay kit with no modifications (R&D Systems, Minneapolis, Minn.). […] All supernatant media samples were diluted 1:30 for quantification. Test materials and were assayed in duplicate, while solvent controls were replicated eight times. IL-6 and adiponectin secretion were represented relative to the IL-6 and adiponectin secretion of the t10-CLA only controls as the IL-6 and adiponectin index and differences among the means were analyzed by the student's t-test assuming a five percent probability of a type I error (Excel; Microsoft, Redmond, Wash.).

In assay [3] the test system is adiponectin secretion in 3T3-L1 adipocytes. Briefly: Adiponectin secretion in t10-CLA-stimulated 3T3-L1 adipocytes. It counts as cell-based, murine. The settings on record: t10-CLA 50 μM control = 100; μg TQ equivalents/mL: Thymoquinone 5.0, NS8 0.11, NS9 0.99, NS10 0.012, NSSpent#2 0.0005; NSSpent#1 5 μg/mL; listed as TQ. Here is the method: The 3T3-L1 murine fibroblast model as used in Example 4 was used in this experiments. Test materials were added four hours prior to the addition of t10-CLA at a concentration of 50 μM. Following overnight incubation, the supernatant media were sampled for determination of IL-6 and adiponectin. The adiponectin secreted into the medium was quantified using the Mouse Adiponectin Quantikine® Immunoassay kit with no modifications (R&D Systems, Minneapolis, Minn.). […] Test materials and were assayed in duplicate, while solvent controls were replicated eight times. IL-6 and adiponectin secretion were represented relative to the IL-6 and adiponectin secretion of the t10-CLA only controls as the IL-6 and adiponectin index and differences among the means were analyzed by the student's t-test assuming a five percent probability of a type I error (Excel; Microsoft, Redmond, Wash.).

Assay [4] concerns LPS-stimulated macrophages. Conditions: published results, El-Mahmoudy 2002; cited from earlier work.

On to `CC1=CC(=O)C(C(C)C)=CC1=O` [Thymoquinone, thymoquinone], for which the “DPPH Reducing Activity” value in assay [1] amounted to 45.2 μmol Trolox/g TQ. Also, the “Relative Loss of TEER” value with Caco-2 monolayers was “inhibited loss of TEER”. For the same compound, in assay [2], the “IL-6 Index” value is recorded as “inhibited IL-6 secretion”. The “Adiponectin Index” value in assay [3] was “attenuated t10-CLA-stimulated decrease of adiponectin secretion”. Besides, the “IC50 for NO inhibition in LPS-stimulated macrophages” value in assay [4] is 1.4 to 2.8 µg/mL.
